Here are results for one compound from paper PMC10617569, “The Ustilago maydis AA10 LPMO is active on fungal cell wall chitin” (Applied and Environmental Microbiology, 2023).

In this assay the target is T1, UmAA10_cd (Mycosarcoma maydis, UniProt A0A0D1CHL0).
T1 construct: gene UMAG_05439; catalytic domain only; C-terminal extension removed between Gly203 and Gly204; C-terminal (His)6-tag; made in Pichia pastoris SuperMan5; copper loaded
Description: Amplex red / HRP assay of H2O2 production, absorbance at […] nm. The note with it: reductant of the LPMO oxidase reaction, 50 µM ascorbic acid with O2; 1 µM enzyme; sodium phosphate 50 mM pH 7.0; 23°C. The format is biochemical.

Structures are written as SMILES.

T1 sequence (A0A0D1CHL0 33-203): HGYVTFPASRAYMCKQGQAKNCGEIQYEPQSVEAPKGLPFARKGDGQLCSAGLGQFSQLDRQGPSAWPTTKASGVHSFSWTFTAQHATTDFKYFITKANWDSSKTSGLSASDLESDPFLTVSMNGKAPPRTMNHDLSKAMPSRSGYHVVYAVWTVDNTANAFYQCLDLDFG

As for `O=C1O[C@H]([C@@H](O)CO)C(O)=C1O` [ascorbic acid], the “Amplex red / HRP assay of H2O2 production, absorbance at 575 nm” value is on record as “Using ascorbic acid (AscA) as a reductant, we found that UmAA10_cd produces H2O2”.
